Reference: US12077503B2, “Substituted cyclic amides and their use as herbicides” (FMC CORPORATION, priority 2015, dated 2024)

What was measured:
Assay type in all cases: in vivo
[1] = tested on: sedge, umbrella (small-flower umbrella sedge, Cyperus difformis); assay: Test B flooded paddy test; settings: Cyperus difformis, 250 g ai/ha, Flood; 0 to 100 scale where 0 is no effect and 100 is complete control; read-out: Sedge, Umbrella plant response rating
Summary of the method: (§1)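 Evaluation by eye, against controls, occurred 13–15 d post-treatment in a greenhouse, using a 0 (no effect) to 100 (complete control) scale. Application was into the paddy water, 3 cm deep over the soil, on 2-leaf plants.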

[2] = tested on: rice (Oryra sativa); assay: Test B flooded paddy test; settings: Oryza sativa, 250 g ai/ha, Flood; 0 to 100 scale where 0 is no effect and 100 is complete control; read-out: Rice plant response rating
Summary of the method: as §1

[3] = tested on: barnyardgrass (Echinochloa crus-galli); assay: Test B flooded paddy test; settings: Echinochloa crus-galli, 250 g ai/ha, Flood; 0 to 100 scale where 0 is no effect and 100 is complete control; read-out: Barnyardgrass plant response rating
Summary of the method: as §1

[4] = tested on: ducksalad (Heteranthera limosa); assay: Test B flooded paddy test; settings: Heteranthera limosa, 250 g ai/ha, Flood; 0 to 100 scale where 0 is no effect and 100 is complete control; read-out: Ducksalad plant response rating
Summary of the method: as §1

[5] = tested on: barnyardgrass (Echinochloa crus-galli); assay: Test A preemergence; settings: Echinochloa crus-galli, pre-emergence, 240 h, 0 to 100 scale where 0 is no effect and 100 is complete control, read-out: Barnyardgrass plant response rating; for pest or weed control at 31 g/ha: 31 g ai/ha, Preemergence; for pest or weed control at 125 g/ha: 125 g ai/ha, preemergence, visual injury rating, approximately 10 d
Summary of the method: (§2)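 Greenhouse, ~10 d after spray; visual injury vs untreated controls, 0 = no effect, 100 = complete control. Preemergence: directed soil spray over planted seeds. Postemergence: plants 2–10 cm, 1–2 leaf stage. Loam/sand blend. Compound in non-phytotoxic solvent with surfactant.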

[6] = tested on: ragweed (common ragweed, Ambrosia elatior); assay: Test A preemergence; settings: Ambrosia artemisiifolia, pre-emergence, 240 h, 0 to 100 scale where 0 is no effect and 100 is complete control, read-out: Ragweed plant response rating; for pest or weed control at 31 g/ha: 31 g ai/ha, Preemergence; for pest or weed control at 125 g/ha: 125 g ai/ha, preemergence, visual injury rating, approximately 10 d
Summary of the method: as §2

[7] = tested on: pigweed (Amaranthus retroflexus); assay: Test A preemergence; settings: Amaranthus retroflexus, pre-emergence, 240 h, 0 to 100 scale where 0 is no effect and 100 is complete control, read-out: Pigweed plant response rating; for pest or weed control at 31 g/ha: 31 g ai/ha, Preemergence; for pest or weed control at 125 g/ha: 125 g ai/ha, preemergence, visual injury rating, approximately 10 d
[8] = tested on: giant foxtail (Setaria faberii); assay: Test A preemergence; settings: Setaria faberi, pre-emergence, 240 h, 0 to 100 scale where 0 is no effect and 100 is complete control, read-out: Foxtail, Giant plant response rating; for pest or weed control at 31 g/ha: 31 g ai/ha, Preemergence; for pest or weed control at 125 g/ha: 125 g ai/ha, preemergence, visual injury rating, approximately 10 d
Summary of the method: as §2

[9] = tested on: Kochia (Kochia scoparia); assay: Test A preemergence; settings: Bassia scoparia, pre-emergence, 240 h, 0 to 100 scale where 0 is no effect and 100 is complete control, read-out: Kochia plant response rating; for pest or weed control at 31 g/ha: 31 g ai/ha, Preemergence; for pest or weed control at 125 g/ha: 125 g ai/ha, preemergence, visual injury rating, approximately 10 d
Summary of the method: as §2

[10] = tested on: ryegrass, Italian (Italian ryegrass, Lolium multiflorum); assay: Test A preemergence; settings: Lolium multiflorum, pre-emergence, 240 h, 0 to 100 scale where 0 is no effect and 100 is complete control, read-out: Ryegrass, Italian plant response rating; for pest or weed control at 31 g/ha: 31 g ai/ha, Preemergence; for pest or weed control at 125 g/ha: 125 g ai/ha, preemergence, visual injury rating, approximately 10 d
Summary of the method: as §2

[11] = tested on: barnyardgrass (Echinochloa crus-galli); assay: Test A postemergence; settings: Echinochloa crus-galli, post-emergence, 240 h, Postemergence; for pest or weed control at 125 g/ha: 125 g ai/ha, visual rating about 10 d after treatment, read-out: Barnyardgrass plant response rating (0 to 100 scale, 0 no effect, 100 complete control); for pest or weed control at 31 g/ha: 31 g ai/ha, 0 is no effect, 100 is complete control, read-out: Barnyardgrass plant response rating (0 to 100 scale)
Summary of the method: as §2

[12] = tested on: ragweed (common ragweed, Ambrosia elatior); assay: Test A postemergence; settings: Ambrosia artemisiifolia, post-emergence, 240 h, Postemergence, read-out: Ragweed plant response rating (0 to 100 scale); for pest or weed control at 125 g/ha: 125 g ai/ha, visual rating about 10 d after treatment; for pest or weed control at 31 g/ha: 31 g ai/ha, 0 is no effect, 100 is complete control
Summary of the method: as §2

[13] = tested on: pigweed (Amaranthus retroflexus); assay: Test A postemergence; settings: Amaranthus retroflexus, post-emergence, 240 h, Postemergence, read-out: Pigweed plant response rating (0 to 100 scale); for pest or weed control at 125 g/ha: 125 g ai/ha, visual rating about 10 d after treatment; for pest or weed control at 31 g/ha: 31 g ai/ha, 0 is no effect, 100 is complete control
Summary of the method: as §2

[14] = tested on: wheat (Triticum aestivum); assay: Test A postemergence; settings: Triticum aestivum, post-emergence, 240 h, Postemergence, read-out: Wheat plant response rating (0 to 100 scale); for plant injury at 125 g/ha: 125 g ai/ha, visual rating about 10 d after treatment; for plant injury at 31 g/ha: 31 g ai/ha, 0 is no effect, 100 is complete control
Summary of the method: as §2

[15] = tested on: giant foxtail (Setaria faberii); assay: Test A postemergence; settings: Setaria faberi, post-emergence, 240 h, Postemergence, read-out: Foxtail, Giant plant response rating (0 to 100 scale); for pest or weed control at 125 g/ha: 125 g ai/ha, visual rating about 10 d after treatment; for pest or weed control at 31 g/ha: 31 g ai/ha, 0 is no effect, 100 is complete control
Summary of the method: as §2

[16] = tested on: Galium (catchweed bedstraw, Galium aparine); assay: Test A postemergence; settings: Galium, post-emergence, 240 h, Postemergence, read-out: Galium plant response rating (0 to 100 scale); for pest or weed control at 125 g/ha: 125 g ai/ha, visual rating about 10 d after treatment; for pest or weed control at 31 g/ha: 31 g ai/ha, 0 is no effect, 100 is complete control
Summary of the method: as §2

[17] = tested on: blackgrass (Alopecurus myosuroides); assay: Test A postemergence; settings: Alopecurus myosuroides, post-emergence, 240 h, Postemergence, read-out: Blackgrass plant response rating (0 to 100 scale); for pest or weed control at 125 g/ha: 125 g ai/ha, visual rating about 10 d after treatment; for pest or weed control at 31 g/ha: 31 g ai/ha, 0 is no effect, 100 is complete control
Summary of the method: as §2

[18] = tested on: corn (Zea mays); assay: Test A postemergence; settings: Zea mays, post-emergence, 240 h, Postemergence, read-out: Corn plant response rating (0 to 100 scale); for plant injury at 125 g/ha: 125 g ai/ha, visual rating about 10 d after treatment; for plant injury at 31 g/ha: 31 g ai/ha, 0 is no effect, 100 is complete control
Summary of the method: as §2

[19] = tested on: Kochia (Kochia scoparia); assay: Test A postemergence; settings: Bassia scoparia, post-emergence, 240 h, Postemergence, read-out: Kochia plant response rating (0 to 100 scale); for pest or weed control at 125 g/ha: 125 g ai/ha, visual rating about 10 d after treatment; for pest or weed control at 31 g/ha: 31 g ai/ha, 0 is no effect, 100 is complete control
Summary of the method: as §2

[20] = tested on: ryegrass, Italian (Italian ryegrass, Lolium multiflorum); assay: Test A postemergence; settings: Lolium multiflorum, post-emergence, 240 h, Postemergence, read-out: Ryegrass, Italian plant response rating (0 to 100 scale); for pest or weed control at 125 g/ha: 125 g ai/ha, visual rating about 10 d after treatment; for pest or weed control at 31 g/ha: 31 g ai/ha, 0 is no effect, 100 is complete control
Summary of the method: as §2

Compound	pest or weed control at 250 g/ha [1] [%]	pest or weed control at 250 g/ha [2] [%]	pest or weed control at 250 g/ha [3] [%]	pest or weed control at 250 g/ha [4] [%]	pest or weed control at 31 g/ha [5] [%]	pest or weed control at 125 g/ha [5] [%]	pest or weed control at 31 g/ha [6] [%]	pest or weed control at 125 g/ha [6] [%]	pest or weed control at 31 g/ha [7] [%]	pest or weed control at 125 g/ha [7] [%]	pest or weed control at 31 g/ha [8] [%]	pest or weed control at 125 g/ha [8] [%]	pest or weed control at 31 g/ha [9] [%]	pest or weed control at 125 g/ha [9] [%]	pest or weed control at 31 g/ha [10] [%]	pest or weed control at 125 g/ha [10] [%]	pest or weed control at 125 g/ha [11] [%]	pest or weed control at 31 g/ha [11] [%]	pest or weed control at 125 g/ha [12] [%]	pest or weed control at 31 g/ha [12] [%]	other results
CN1C[C@H](c2cccc(C(F)(F)F)c2)[C@@H](C(=O)Nc2ccccc2-n2cncn2)C1=O [Compound 1289]	0	0	0	0	20	30	0	0	0	0	50	50	0	0	0	0	0	0	0	0	pest or weed control at 125 g/ha [13]: 0%; pest or weed control at 31 g/ha [13]: 0%; plant injury at 125 g/ha [14]: 0%; plant injury at 31 g/ha [14]: 0%; pest or weed control at 125 g/ha [15]: 0%; pest or weed control at 31 g/ha [15]: 0%; pest or weed control at 125 g/ha [16]: 0%; pest or weed control at 31 g/ha [16]: 0%; pest or weed control at 125 g/ha [17]: 0%; pest or weed control at 31 g/ha [17]: 0%; plant injury at 125 g/ha [18]: 0%; plant injury at 31 g/ha [18]: 0%; pest or weed control at 125 g/ha [19]: 0%; pest or weed control at 31 g/ha [19]: 0%; pest or weed control at 125 g/ha [20]: 0%; pest or weed control at 31 g/ha [20]: 0%
O=C1NC[C@H](c2csc3c2CCOC3)[C@H]1C(=O)Nc1cccc(F)c1F [Compound 1279]	0	30	40	100	0	70	0	0	0	0	0	20	0	0	0	0	50	0	0	0	pest or weed control at 125 g/ha [13]: 0%; pest or weed control at 31 g/ha [13]: 0%; plant injury at 125 g/ha [14]: 0%; plant injury at 31 g/ha [14]: 0%; pest or weed control at 125 g/ha [15]: 20%; pest or weed control at 31 g/ha [15]: 0%; pest or weed control at 125 g/ha [16]: 30%; pest or weed control at 31 g/ha [16]: 0%; pest or weed control at 125 g/ha [17]: 20%; pest or weed control at 31 g/ha [17]: 0%; plant injury at 125 g/ha [18]: 0%; plant injury at 31 g/ha [18]: 0%; pest or weed control at 125 g/ha [19]: 0%; pest or weed control at 31 g/ha [19]: 0%; pest or weed control at 125 g/ha [20]: 0%; pest or weed control at 31 g/ha [20]: 0%
